The values that follow come from patent US7335495B2, “Process for the isolation of pharmaceutical compound cyclosporin a from fungus fusarium nivale” (Council of Scientific and Industrial Research, priority 2002, dated 2008).

In assay [1] the test system is Trichophyton mentagrophytes. Briefly: MIC by disk diffusion method, Trichophyton mentagrophytes. It is filed as cell-based. The following applies: disks of 50, 25, 12.5, 6.25 and 3.12 μg, 42-120 hrs at room temperature. The source says:
(§1) Czapek Malt Agar (Himedia laboratories Ltd.) was used for culturing Tricholphytos mentagrophytes T. tonsurans, T. violaceum, Aspergillus fresnil and A niger, A. japonicus. Mucological Agar (Himedia Laboratories Ltd was used for Cryptocaccus neoformans and Candida sp.
(§2) Pathogeiic fungal strains of yeast and filamentous fungi (Identified and gifted by Dr. Savio from Goa Medical College, Bamoblim) were used for the test. Strains of Aspergillus were isolated from the infected wheat bread with sterile needles; fungal material was surface sterilized using 0.5% sodium hypochlorite for 2-3 minutes and then washed with small brush in sterile distilled water. This Aspergillus species was described earlier as food spoilage (Bhosale et. Al., 1999). […]
(§3) Innocula were adjusted to 50 μl of Cryptococcus neoformans, Candida sp., Trichophyrou tonsurans, T. violaceum and T. mentagrophytes, Aspergillus fresenil, A. niger, A. japonicus and spread on the appropriate plates, excess moisture was allowed to be absorbed for 10 minutes before applying on disks. […] Test plates were incubated for 42-120 hrs. at room temperature to obtain maximum growth and MIC was determined as lowest concentration of compound and antifungal agents resulting in a cleas zone of growth inhibition. […]

Another assay has as its system Cryptococcus neoformans. Briefly: MIC by disk diffusion method, Cryptococcus neoformans. The assay is classed as cell-based. The following applies: Cryoticiecus Neoformans; disks of 50, 25, 12.5, 6.25 and 3.12 μg; 42-120 hrs at room temperature.
Description: as §1, §2, §3

The test system of a further assay is A. niger. Nature of the assay: MIC by disk diffusion method, A. niger. The assay is classed as cell-based, Aspergillus niger. Conditions: disks of 50, 25, 12.5, 6.25 and 3.12 μg, 42-120 hrs at room temperature.
Description: as §1, §2, §3

The next assay concerns T. tonsurans. Nature of the assay: MIC by disk diffusion method, T. tonsurans. The assay is classed as cell-based, Trichophyton tonsurans. The following applies: disks of 50, 25, 12.5, 6.25 and 3.12 μg, 42-120 hrs at room temperature.
Description: as §1, §2, §3

Another assay deals with Candida sp. Briefly: MIC by disk diffusion method, Candida sp. Conditions: disks of 50, 25, 12.5, 6.25 and 3.12 μg, 42-120 hrs at room temperature. The assay is classed as cell-based.
Description: as §1, §2, §3

A further assay relates to T. violaceum. Nature of the assay: MIC by disk diffusion method, T. violaceum. The assay is classed as cell-based, Trichophyton violaceum. The following applies: disks of 50, 25, 12.5, 6.25 and 3.12 μg, 42-120 hrs at room temperature.
Description: as §1, §2, §3

In the next assay the test system is A. japonicus. Briefly: MIC by disk diffusion method, A. japonicus. The assay is classed as cell-based, Aspergillus japonicus. The following applies: disks of 50, 25, 12.5, 6.25 and 3.12 μg, 42-120 hrs at room temperature.
Description: as §1, §2, §3

A further assay relates to Aspergillus fresenii. Briefly: MIC by disk diffusion method, Aspergillus fresenii. The assay is classed as cell-based. The following applies: disks of 50, 25, 12.5, 6.25 and 3.12 μg, 42-120 hrs at room temperature.
Description: as §1, §2, §3

A further assay relates to Fusarium sp. Briefly: MIC by disk diffusion method, Fusarium sp. The assay is classed as cell-based. Conditions: disks of 50, 25, 12.5, 6.25 and 3.12 μg, 42-120 hrs at room temperature.

As for `C[C@@H]1[C@H](O)[C@@H](C)/C=C/C=C/C=C/C=C/C=C/C=C/C=C/[C@H](O[C@@H]2O[C@H](C)[C@@H](O)[C@H](N)[C@@H]2O)C[C@@H]2O[C@](O)(C[C@@H](O)C[C@@H](O)[C@H](O)CC[C@@H](O)C[C@@H](O)CC(=O)O[C@H]1C)C[C@H](O)[C@H]2C(=O)O` [Amphotericin B], the “MIC, Disk Diffusion Method” value in assay [1] is on record as 3.12-6.25 μg/disc^−1; in the assay on Cryptococcus neoformans, 3.12-6.25 μg/disc^−1; in the assay with A. niger, 6.25-12.5 μg/disc^−1; with T. tonsurans, 6.25-12.5 μg/disc^−1; in the assay with Candida sp., 3.12-6.25 μg/disc^−1; with T. violaceum, 6.25-12.5 μg/disc^−1. Further, the “MIC, Disk Diffusion Method” value was 6.25-12.5 μg/disc^−1 against A. japonicus, 6.25-12.5 μg/disc^−1 in the assay with Aspergillus fresenii and 12.5-25 μg/disc^−1 with Fusarium sp..
As to `C[C@@H]1[C@H](O)[C@@H](C)/C=C/C=C/CC/C=C/C=C/C=C/C=C/C(O[C@H]2O[C@H](C)[C@@H](O)[C@H](N)[C@@H]2O)CC2O[C@](O)(CC(O)C(O)CCC(O)CC(O)CC(O)CC(=O)O[C@H]1C)CC(O)C2C(=O)O` (some centres unmarked) [Nystatin], the “MIC, Disk Diffusion Method” value against Cryptococcus neoformans and with Candida sp. was 3.12-6.25 μg/disc^−1 throughout.
